# Key:
# PDE4 (h) = assay: Enzyme and cell-based assay, [3H]cAMP + cAMP (1 μM)
# [1] = molecular target: AMPA/Kainate chimerae GluA1(K2S1) (Homo sapiens, UniProt P42261, A392I/A426D/A443L/A444R/A447S/A473Q/A536S/C542Y/D385S/D386Q/D417E/D470A/D533N/DEL395-402/E430Y/E441D/E457R/E501K/E538D/F388G/F429L/F545L/G479R/G484H/H449I/I446L/I458L/I518Y/I548L/INS382DPASGLNM/INS391N/INS555VIA/K448T/K472G/K519R/K523G/K525N/L422F/L456I/L497Y/M421L/M517L/N383T/N425S/N427K/P469D/Q405S/Q428P/Q522N/R455E/R467Q/R485K/S453T/S460E/S511T/S524T/T408S/T471N/T494A/V389K/V404L/V440I/V450L/V482I/V488L/V544L/V552C/Y381T/Y409L/Y435F/Y452F/Y483D/Y537P); assay: Glutamate-evoked current in oocytes expressing AMPA/Kainate chimera; details: n = 5
# male adult Wistar rats = assay: Spontaneous locomotor activity in rats; assay type: in vivo, rat; details: 10, 30 and 100 mg/kg p.o. acute; n = 9
# Procedure: Locomotor activity was recorded in male adult Wistar rats (180–200 g, Janvier Labs, Le Genest Saint Isle, France) placed in cages in a soundproof keeping room (open-field). A remote surveillance appliance allowed to observe and to record animal behaviour from an adjacent room. The movie camera was connected to an automatic analysis system (videotrack software, Viewpoint, Lissieu, France). The distance covered (cm) was automatically computed for each rat. Rats were orally administered 1 h before the test with S 47445 (10, 30 and 100 mg/kg) or vehicle. Locomotor activity was recorded during 30 min divided in 3 x 10-min periods. The total covered distance over 30 min was analysed using one way (dose) ANOVA, followed in case of significance of the dose effect by Dunnett’s test (versus vehicle controls). The significance threshold was set at 5%. Analyses were performed using SAS v9.2 software (SAS Institute, Cary, NC).
# male OFA rats = assay: Novel object recognition test in rats; assay type: in vivo, rat; details: 3 administrations
# Procedure: Novel object recognition and T-maze studies were conducted respectively in male OFA rats (150–175 g, Charles River, Saint-Germain-Nuelles, France) and male C57Bl/6 mice (5.5–6.5 month-old, Charles River, Saint-Germain-Nuelles, France). Animals were housed in collective cages with continuous access to tap water and food on a 12 h light-dark cycle, in a temperature-controlled (21 ± 1°C) and ventilated room. On completion of studies subjects were euthanized by either CO2 inhalation or intraperitoneal (i.p.) lethal pentobarbital injection. The novel object recognition test was used as the primary in vivo screening assay to identify AMPA-PAMs. The T-maze task was performed using a modified continuous performance procedure previously described in mice.
# S 47445 was suspended either in distilled water with Tween80® 2% for oral administration or saline with Tween80® 2% for i.p. administration. Tween80® was obtained from Sigma-Aldrich, Lyon, France. S 47445 was synthetized by Servier, Suresnes, France. […]
# The novel object recognition paradigm was developed by Ennaceur and Delacour, 1988 and aimed to evaluate potential procognitive effects of drugs on a form of recognition (episodic-like) memory in the rat. […] Consequently, recognition is measured by the time spent by rats in exploring two different objects, one being familiar and the other being new.
# Animals were submitted to three phases of the test. […] Each rat was placed in the arena, and the time spent actively exploring the objects was recorded. […] After 24 h, during the third phase (session of recognition), each rat was again placed in the apparatus for 3 min in the presence of one of the familiar (Fam) objects and a new (New) object, and the time spent exploring both objects was again recorded. […] The difference in duration of exploration of the two objects (New-Fam) and the sum of duration of exploration on session of recognition were determined. Statistical analysis was performed on the discrimination index calculated as (New-Fam)/(Fam+New) using a one-way ANOVA using SAS v9.2 software (SAS Institute, Cary, NC). […]
# [2] = tested on: Ca2+ channel (L, diltiazem site) (benzothiazepines); assay: Binding assay, [3H]diltiazem
# male NMRI mice = assay: Functional observation battery in mice; assay type: in vivo, mouse
# Procedure: The effect of 47445 after high doses administration was assessed on general behaviour in mice. Male NMRI mice (18–22 g, Janvier Labs, Le Genest Saint Isle, France) were used and placed individually for habituation, 15 min before administration. Room temperature was maintained at 20.9°C during experimentation. At T0 min, body temperature was monitored via a rectal probe connected to a computer (Viewpoint). Mice were then orally treated with S 47445 (30, 100 and 300 mg/kg) or vehicle. […] Delta of body temperature compared to T0 min (°C) was calculated. Groups were compared for body temperature at T0 min with a one-way ANOVA followed by Tukey’s pair-wise comparison post hoc tests. The treatment effect on delta of body temperature compared to T0 min was analysed using a two-way ANOVA followed by Dunnett’s post hoc tests. Analyses were performed using SAS v9.2 software (SAS Institute, Cary, NC).
# AMPA = assay: Binding assay, [3H]AMPA, rat cerebral cortex membranes
# I1 = assay: Binding assay, [3H]clonidine (+ 10 μM RX821002)
# Chain of AMPA/Kainate chimerae GluA1(K2S1) (P42261 with tags, fused parts or gaps with the stated changes): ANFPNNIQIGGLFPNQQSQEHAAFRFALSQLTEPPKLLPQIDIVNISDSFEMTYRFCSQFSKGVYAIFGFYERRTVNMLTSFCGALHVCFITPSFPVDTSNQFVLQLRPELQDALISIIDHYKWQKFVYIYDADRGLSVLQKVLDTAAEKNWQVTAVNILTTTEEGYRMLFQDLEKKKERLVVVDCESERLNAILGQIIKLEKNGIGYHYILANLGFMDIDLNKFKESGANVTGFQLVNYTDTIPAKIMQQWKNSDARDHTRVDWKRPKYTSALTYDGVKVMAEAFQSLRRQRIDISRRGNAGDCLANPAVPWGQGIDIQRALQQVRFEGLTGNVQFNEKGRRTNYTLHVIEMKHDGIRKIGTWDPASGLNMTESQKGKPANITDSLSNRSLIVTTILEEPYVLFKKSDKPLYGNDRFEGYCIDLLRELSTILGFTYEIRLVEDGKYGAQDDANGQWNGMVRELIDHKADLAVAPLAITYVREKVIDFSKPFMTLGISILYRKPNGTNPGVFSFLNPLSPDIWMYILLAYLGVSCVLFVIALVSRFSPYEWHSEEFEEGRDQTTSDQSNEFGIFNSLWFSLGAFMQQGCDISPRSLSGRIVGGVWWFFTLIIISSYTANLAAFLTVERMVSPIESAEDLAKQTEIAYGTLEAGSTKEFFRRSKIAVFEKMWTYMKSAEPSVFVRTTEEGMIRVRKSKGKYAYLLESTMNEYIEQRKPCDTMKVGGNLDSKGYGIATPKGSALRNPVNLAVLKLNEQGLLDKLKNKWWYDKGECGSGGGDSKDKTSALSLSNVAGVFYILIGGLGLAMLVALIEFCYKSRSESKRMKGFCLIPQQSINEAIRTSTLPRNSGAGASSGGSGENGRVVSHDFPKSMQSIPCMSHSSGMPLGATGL
smiles,measurement,setting,value
"O=C1c2cc3nnn(CCc4cccc(F)c4)c(=O)c3cc2OCN1C1CC1 [S 47445, 8-cyclopropyl-3-[2-(3-fluorophenyl)ethyl]-7,8-dihydro-3H-[1,3]oxazino[6,5-g][1,2,3]benzotriazine-4,9-dione]",% Inhibition of control specific binding,PDE4 (h); S 47445 1.0E-05 M,-12%
same,% Inhibition of control specific binding,PDE4 (h); S 47445 1.0E-07 M,20%
same,Potentiating effect on glutamate-evoked current,[1],lost
same,Total distance of spontaneous locomotor activity,male adult Wistar rats,did not significantly modify
same,Discrimination index versus vehicle,"male OFA rats; 0.3 mg/kg p.o., p ≤ 0.01",significantly increased the discrimination index
same,Discrimination index versus vehicle,"male OFA rats; 1 mg/kg p.o., tendency of increase",did not reach statistical significance
same,Discrimination index versus vehicle,"male OFA rats; 3 mg/kg p.o., p ≤ 0.05",significantly increased the discrimination index
same,% Inhibition of control specific binding,[2]; S 47445 1.0E-05 M,25%
same,% Inhibition of control specific binding,[2]; S 47445 1.0E-07 M,-6%
same,Body temperature and behavior,"male NMRI mice; 30, 100 and 300 mg/kg oral acute",no significant effect
same,Spontaneous epileptic seizures,male NMRI mice; up to 300 mg/kg p.o.,No occurrence
same,% Inhibition of control specific binding,AMPA; S 47445 1.0E-05 M,-8%
same,% Inhibition of control specific binding,AMPA; S 47445 1.0E-07 M,1%
same,Ki,"AMPA; read-out: Ki, glutamate binding site, n = 2",> 10 µM
same,% Inhibition of control specific binding,I1; S 47445 1.0E-05 M,21%
same,% Inhibition of control specific binding,I1; S 47445 1.0E-07 M,10%
